The record followed here is patent US6093838A, “Amines substituted with a dihydro-benzofuranyl or with a dihydro-isobenzofuranyl group, an aryl or heteroaryl group and an alkyl group, having retinoid-like biological activity” (Allergan Sales, Inc., priority 1999, dated 2000).

For orientation: Ki means the equilibrium dissociation constant of an inhibitor or competing ligand from its target. By EC50 is commonly meant the concentration needed to bring the measured effect to its halfway point.

One test has as its target T1, RARγ (Homo sapiens, UniProt P13631).
T1 sequence (P13631 1-454): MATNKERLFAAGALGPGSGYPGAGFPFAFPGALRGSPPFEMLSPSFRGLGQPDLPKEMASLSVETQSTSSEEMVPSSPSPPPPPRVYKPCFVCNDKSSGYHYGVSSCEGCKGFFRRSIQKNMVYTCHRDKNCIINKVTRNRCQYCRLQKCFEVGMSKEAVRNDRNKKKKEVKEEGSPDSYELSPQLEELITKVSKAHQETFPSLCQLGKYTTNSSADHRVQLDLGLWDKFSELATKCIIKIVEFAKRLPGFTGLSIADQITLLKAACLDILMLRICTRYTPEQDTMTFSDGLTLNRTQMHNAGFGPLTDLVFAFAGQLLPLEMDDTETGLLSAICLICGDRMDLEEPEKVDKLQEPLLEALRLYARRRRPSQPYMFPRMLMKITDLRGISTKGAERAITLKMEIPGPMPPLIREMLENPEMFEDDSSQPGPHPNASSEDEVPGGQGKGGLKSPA
Kind of test: ligand binding assay, RARγ. Conditions: read-out: RAR Bind. Ki γ. An excerpt: (§1) Other assays described below, measure the ability of the compounds of the present invention to bind to, and/or activate various retinoid receptor subtypes. When in these assays a compound binds to a given receptor subtype and activates the transcription of a reporter gene through that subtype, then the compound is considered an agonist of that receptor subtype. […] In the below described assays the ability of the compounds to bind to RARα, RARβ, RARγ, RXRα, RXRβ and RXRγ receptors, and the ability or inability of the compounds to activate transcription of a reporter gene through these receptor subtypes can be tested. […] However, some of the compounds of the invention may behave as retinoid antagonists or partial antagonists and/or as inverse agonists. Because of the complex distribution of the different retinoid receptors in various organs of the mammalian body partial agonists and partial antagonists and compounds which have the characteristics of both may lend themselves to particularly useful therapeutic applications and may avoid serious side effects of conventional retinoid drugs.
(§2) A holoreceptor transactivation assay and a ligand binding assay which measure the antagonist/agonist like activity of the compounds of the invention, or their ability to bind to the several retinoid receptor subtypes, respectively, are described in published PCT Application No. WO WO93/11755 (particularly on pages 30-33 and 37-41) published on Jun. 24, 1993, the specification of which is also incorporated herein by reference. A detailed experimental procedure for holoreceptor transactivations has been described by Heyman et al. Cell 68, 397-406, (1992); Allegretto et al. J. Biol. Chem. 268, 26625-26633, and Mangelsdorf et al. The Retinoids: Biology, Chemistry and Medicine, pp 319-349, Raven Press Ltd., New York, which are expressly incorporated herein by reference. The results obtained in this assay are expressed in EC50 numbers, as they are also in the chimeric receptor transactivation assay. The results of ligand binding assay are expressed in Kd numbers. (See Cheng et al. Biochemical Pharmacology Vol. 22 pp 3099-3108, expressly incorporated herein by reference.)
(§3) Table 1 discloses the activity of certain exemplary compounds of the invention in the above-described chimeric receptor transactivation assay, holoreceptor transactivation assay and a ligand binding assays. Particularly, the transactivation data pertaining to RAR receptors were obtained in the chimeric assay, and the data pertaining to transactivation of RXR receptors were obtained in the holoreceptor transactivation assay.

The target of test [1] is T2, RXRα (Homo sapiens, UniProt P19793).
T2 construct: expressed in transfected cells
T2 sequence (P19793 1-462): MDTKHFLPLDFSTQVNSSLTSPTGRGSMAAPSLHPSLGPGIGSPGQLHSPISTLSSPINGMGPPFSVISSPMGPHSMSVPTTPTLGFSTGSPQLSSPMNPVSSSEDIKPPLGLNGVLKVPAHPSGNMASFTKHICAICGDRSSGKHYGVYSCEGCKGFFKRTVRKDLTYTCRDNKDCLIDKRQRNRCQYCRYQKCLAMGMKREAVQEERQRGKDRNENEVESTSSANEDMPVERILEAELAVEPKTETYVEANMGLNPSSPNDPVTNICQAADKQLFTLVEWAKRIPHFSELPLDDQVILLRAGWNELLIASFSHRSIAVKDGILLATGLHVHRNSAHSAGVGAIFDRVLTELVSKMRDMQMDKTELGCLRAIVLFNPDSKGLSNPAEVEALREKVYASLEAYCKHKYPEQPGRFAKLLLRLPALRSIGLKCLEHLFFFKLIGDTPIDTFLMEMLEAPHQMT
Kind of test: holoreceptor transactivation assay, RXRα. The test is classed as cell-based. The note with it: for EC50: holoreceptor transactivation, RXRα, read-out: RXR Trans. EC50 α; for Emax: relative to 10^-6 M cyclopropyl penta-2,4-dienoic acid reference (RXRs), read-out: % efficacy (RXRα transactivation).
Source text: as §1, §2, §3

The target of test [2] is T2, RXRα. Briefly: ligand binding assay, RXRα. Conditions: read-out: RXR Bind Ki α.
Source text: as §1, §2, §3

A further test has as its target T3, RARβ (Homo sapiens, UniProt P10826).
T3 sequence (P10826 1-448 isoform P10826-2): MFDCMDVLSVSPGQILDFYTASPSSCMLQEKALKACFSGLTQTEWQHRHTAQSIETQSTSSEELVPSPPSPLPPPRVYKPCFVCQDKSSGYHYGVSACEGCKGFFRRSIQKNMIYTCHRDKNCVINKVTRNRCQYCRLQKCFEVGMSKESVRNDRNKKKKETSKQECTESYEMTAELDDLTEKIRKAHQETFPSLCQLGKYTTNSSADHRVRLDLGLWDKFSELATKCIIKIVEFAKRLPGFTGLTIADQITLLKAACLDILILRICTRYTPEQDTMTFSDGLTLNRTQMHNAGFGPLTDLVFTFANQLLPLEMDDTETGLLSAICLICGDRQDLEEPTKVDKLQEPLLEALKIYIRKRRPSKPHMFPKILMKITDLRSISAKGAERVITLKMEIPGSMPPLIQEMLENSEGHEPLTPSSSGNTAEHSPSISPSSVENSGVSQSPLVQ
Kind of test: ligand binding assay, RARβ. The note with it: read-out: RAR Bind. Ki β.
Source text: as §1, §2, §3

A further test concerns the target RXRβ. Kind of test: ligand binding assay, RXRβ. The note with it: read-out: RXR Bind Ki β.
Source text: as §1, §2, §3

In another test the target is RXRγ. Kind of test: ligand binding assay, RXRγ. Conditions: read-out: RXR Bind Ki γ.
Source text: as §1, §2, §3

For the molecule `CCN(c1ccc(C(=O)O)cc1)c1cc(C)c2c(c1)C(C)(C)CO2` [Compound 27, 4-[Ethyl-(3,3,7-trimethyl-2,3-dihydro-benzofuran-5-yl)-amino]-benzoic acid], the Ki at RARγ was over 30 µM; at RXRα [2], 15 µM; at RARβ, over 30 µM; on RXRβ, over 100 µM; on RXRγ it was over 100 µM. Also, at RXRα [1], the EC50 worked out at 1 µM. On RXRα [1], the Emax is 80%.
For `CCc1cc(N(CC)c2ccc(C(=O)O)cc2)cc2c1OCC2(C)C` [Compound 29, 4-[Ethyl-(3,3-dimethyl-7-ethyl-2,3-dihydro-benzofuran-5-yl)-amino]-benzoic acid], the Ki at RARγ was 8.4 µM; at RXRα [2] it was over 1 µM; on RARβ it was over 10 µM; at RXRβ, over 1 µM; at RXRγ, over 1 µM. Moreover, the EC50 on RXRα [1] was determined as 0.139 µM. On RXRα [1], the Emax is 117%.
For the molecule `CC(C)c1cc(N(C)c2ccc(C(=O)O)cc2)cc2c1OCC2(C)C` [Compound 30, 4-[Methyl-(3,3-dimethyl-7-isopropyl-2,3-dihydro-benzofuran-5-yl)-amino]-benzoic acid], the Ki at RARγ is 3.3 µM; at RXRα [2], 11 µM; on RARβ it was over 30 µM; at RXRβ it was 4.6 µM; at RXRγ it was over 10 µM. Besides, the EC50 at RXRα [1] is 1 µM. Moreover, the Emax at RXRα [1] was found to be 75%.
Turning to `CCN(c1ccc(C(=O)O)cc1)c1cc(C(C)C)c2c(c1)C(C)(C)CO2` [Compound 31, 4-[Ethyl-(3,3-dimethyl-7-isopropyl-2,3-dihydro-benzofuran-5-yl)-amino]-benzoic acid], the Ki on RARγ came to 4 µM; at RXRα [2], 0.0018 µM; on RARβ, 29 µM; at RXRβ, 0.752 µM; on RXRγ it was 4.1 µM. Also, the EC50 on RXRα [1] amounted to 0.074 µM. In addition, the Emax on RXRα [1] was determined as 116%.
Turning to `CCN(c1ccc(C(=O)O)cc1)c1cc(C(C)(C)C)c2c(c1)C(C)(C)CO2` [Compound 32, 4-[Ethyl-(7-t-butyl-3,3-dimethyl-2,3-dihydro-benzofuran-5-yl)-amino]-benzoic acid], the Ki is 2 µM at RARγ; 0.222 µM on RXRα [2]; over 1 µM on RARβ; 0.342 µM on RXRβ; 0.672 µM at RXRγ. The EC50 at RXRα [1] came to 0.098 µM. Further, on RXRα [1], the Emax amounted to 103%.
With `CCc1cc(N(c2ccc(C(=O)O)cc2)C(C)C)cc2c1OCC2(C)C` [Compound 42, 4-[Isopropyl-(3,3-dimethyl-7-ethyl-2,3-dihydro-benzofuran-5-yl)-amino]-benzoic acid], the Ki on RARγ is 4.9 µM; on RXRα [2] it was over 1 µM; on RARβ, over 10 µM; at RXRβ it was over 1 µM; on RXRγ, over 1 µM. In addition, the EC50 on RXRα [1] turned out to be 0.203 µM. In addition, the Emax at RXRα [1] was found to be 100%.
Regarding `CC(C)c1cc(N(c2ccc(C(=O)O)cc2)C(C)C)cc2c1OCC2(C)C` [Compound 43], the Ki is 2.6 µM on RARγ, over 1 µM on RXRα [2] and over 10 µM at RARβ. For the same molecule, at RXRα [1], the EC50 stood at 0.016 µM. Also, the Emax on RXRα [1] was determined as 66%.
In the case of `CC(C)N(c1ccc(C(=O)O)cc1)c1cc(C(C)(C)C)c2c(c1)C(C)(C)CO2` [Compound 44, 4-[Isopropyl-(7-t-butyl-3,3-dimethyl-2,3-dihydro-benzofuran-5-yl)-amino]-benzoic acid], the Ki is 1.6 µM on RARγ; 0.011 µM on RXRα [2]; over 1 µM on RARβ; 0.215 µM on RXRβ; 0.344 µM on RXRγ. In addition, the EC50 on RXRα [1] was determined as 0.022 µM. Besides, the Emax on RXRα [1] amounted to 73%.
On to `Cc1c(N(c2ccc(C(=O)O)cc2)C(C)C)cc2c(c1C(C)(C)C)OCC2(C)C` [Compound 73, 4-[Isopropyl-(7-t-butyl-3,3,6-trimethyl-2,3-dihydro-benzofuran-5-yl)-amino]-benzoic acid], for which the Ki at RARγ is 2.7 µM; at RXRα [2], 0.071 µM; on RARβ, over 10 µM; at RXRβ, 0.178 µM; at RXRγ, 0.236 µM. Besides, at RXRα [1], the EC50 was determined as 0.01 µM. The Emax on RXRα [1] is 92%.
Regarding `CCN(c1ccc(C(=O)O)cc1)c1ccc2c(c1)C(C)(C)OC2(C)C` [Compound 83, 4-[Ethyl-(1,1,3,3-tetramethyl-1,3-dihydro-isobenzofuran-5-yl)-amino]-benzoic acid], the Ki on RARγ is over 10 µM; on RXRα [2], 1 µM; on RARβ, over 10 µM; at RXRβ it was over 1 µM; at RXRγ, over 1 µM. Further, the EC50 on RXRα [1] worked out at 0.039 µM. Further, the Emax on RXRα [1] is 107%.
`CCCN(c1ccc(C(=O)O)cc1)c1ccc2c(c1)C(C)(C)OC2(C)C` [Compound 84, 4-[n-Propyl-(1,1,3,3-tetramethyl-1,3-dihydro-isobenzofuran-5-yl)-amino]-benzoic acid]: the Ki on RARγ is over 10 µM; at RXRα [2] it was 1.5 µM; on RARβ it was over 10 µM; at RXRβ, 2 µM; at RXRγ, over 1 µM. Also, at RXRα [1], the EC50 was found to be 0.04 µM. At RXRα [1], the Emax is 121%.
Turning to `CCCCN(c1ccc(C(=O)O)cc1)c1ccc2c(c1)C(C)(C)OC2(C)C` [Compound 85, 4-[n-Butyl-(1,1,3,3-tetramethyl-1,3-dihydro-isobenzofuran-5-yl)-amino]-benzoic acid], the Ki is over 10 µM at RARγ; over 1 µM on RXRα [2]; over 10 µM on RARβ; over 1 µM at RXRβ; over 1 µM at RXRγ. Moreover, the EC50 at RXRα [1] worked out at 0.161 µM. The Emax at RXRα [1] worked out at 122%.
Consider `CC(C)N(c1ccc(C(=O)O)cc1)c1ccc2c(c1)C(C)(C)OC2(C)C` [Compound 87, 4-[i-Propyl-(1,1,3,3-tetramethyl-1,3-dihydro-isobenzofuran-5-yl)-amino]-benzoic acid], for which the Ki on RARγ is over 10 µM; on RXRα [2], 0.65 µM; on RARβ, over 10 µM; on RXRβ it was 2.7 µM; at RXRγ, 2.1 µM. Further, the EC50 on RXRα [1] worked out at 0.057 µM. For the same molecule, the Emax at RXRα [1] was 115%.
